For test [1], the system named is K. pneumoniae NVT1001 strains with aminoglycoside resistance plasmids. The test is described as follows: Etest MIC of aminoglycosides, aminoglycoside-modifying enzyme or 16S rRNA methylase (Table 13). It counts as cell-based, Klebsiella pneumoniae. As to the method:
DNA fragments of the resistance genes along with their flanking regions were amplified from clinical plasmids via PCR with specific primer pairs. The resulting PCR fragments were digested and then cloned into the plasmid pACYC177 or pACYC184. The resulting plasmids were then transformed into K. pneumoniae strain NVT1001 via electroporation. The recombinant bacteria were plated onto LB agar plates containing kanamycin (50 mg/L) or chloramphenicol (50 mg/L), and the presence of the cloned gene was confirmed via PCR and DNA sequencing.
(§1) The MICs of antibiotics were determined using the Etest (Biodisk AB, Sweden) according to the manufacturer's instructions. The MICs from the Etest, which fall between standard two-fold dilutions, were rounded up to the next highest two-fold value. The MICs of ceftazidime and cefotaxime against K. pneumoniae NVT1001 harbouring the pACYC177 plasmid with blaOXA-48 were further determined using a broth microdilution test according to the recommendations of the CLSI,^25 and the results were interpreted according to the breakpoints established by the CLSI in 2017.^25 Meanwhile, due to the lack of CLSI breakpoints in 2016 and 2017, the results for cephalothin were interpreted according to the breakpoints established by the CLSI in 2015,^26 and the results for moxifloxacin were interpreted according to the breakpoints established by the EUCAST in 2017.^27

Test [2] deals with K. pneumoniae NVT1001 and its ΔompK35/36 and/or ΔramR mutants. The test is described as follows: Etest MIC, OmpK35/36 loss and AcrAB-TolC overexpression (ΔramR) strains (Table 6). In kind it is cell-based, Klebsiella pneumoniae. Particulars: Klebsiella pneumoniae. Put shortly:
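Etest MICs against K. pneumoniae NVT1001 and its ΔompK35/36 and/or ΔramR mutants, rounded up to the next two-fold value. For NVT1001 carrying pACYC177-blaOXA-48, ceftazidime and cefotaxime MICs by CLSI broth microdilution, interpreted with CLSI 2017 breakpoints.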

Test [3] deals with A. baumannii KW1 strains with aminoglycoside resistance plasmids. The test is described as follows: Etest MIC of aminoglycosides, aminoglycoside-modifying enzyme or 16S rRNA methylase (Table 19). In kind it is cell-based, Acinetobacter baumannii. How it is done:
DNA fragments of the resistance genes along with their flanking regions were amplified from clinical plasmids via PCR with specific primer pairs. The resulting PCR fragments were digested and then cloned into the plasmid pYMAb5 or pYMAb5Tc. The resulting plasmids were then transformed into A. baumannii KW1 via electroporation.
as §1

[4] abbreviates: NVT1001, no supplemental plasmid.
Where [5] appears, read: NVT1001 with AAC(3)-IId on pACYC184.
Where [6] appears, read: NVT1001 with AAC(3)-IVa on pACYC184.
[7] abbreviates: NVT1001 with AAC(6′)-Ib-cr on pACYC184.
[8] abbreviates: NVT1001 with ANT(2″)-Ia on pACYC184.
[9] abbreviates: NVT1001 with ANT(3″)-Ia on pACYC184.
[10] abbreviates: NVT1001 with APH(3′)-IIa on pACYC184.
The mark [11] stands for this setting: NVT1001 with APH(3′)-Ia on pACYC184.
The mark [12] stands for this setting: NVT1001 with StrA-StrB on pACYC184.
Where [13] appears, read: KW1 with AAC(3)-IIa on pYMAb5Tc.
[14] abbreviates: KW1 with ANT(2”)-Ia on pYMAb5Tc.
Setting [15] is: KW1 with ANT(3”)-Ia on pYMAb5Tc.
[16] abbreviates: KW1 with APH(3')-Ia on pYMAb5Tc.
The mark [17] stands for this setting: KW1 with APH(3')-VIa on pYMAb5Tc.
Setting [18] is: KW1 with shuttle vector pYMAb5Tc.

SMILES strings stand for the structures. Converted amounts (≈) assume the structure as drawn. Read-outs that look alike come from different tables or passages of the source.

As usually defined, the MIC is the lowest concentration that inhibits growth of the organism.

Turning to `[H]/N=C(/N)N[C@H]1[C@H](O)[C@@H](O)[C@H](O[C@@H]2O[C@@H](C)[C@](O)(C=O)[C@H]2O[C@@H]2O[C@@H](CO)[C@H](O)[C@@H](O)[C@@H]2NC)[C@@H](N/C(N)=N\[H])[C@@H]1O` [Streptomycin], the “effects on the MIC / resistance” value in test [1] (production of 16S rRNA methylase, ArmA and RmtB) is listed as “not associated with observable effects”; in test [3] (production of 16S rRNA methylase, ArmA), “not associated with increase effects”. Moreover, the MIC was found to be 2 µg/mL (≈ 3.44 µM) in test [2] (WT, NVT1001, read-out: MIC); 4 µg/mL (≈ 6.88 µM) in test [2] (Δ35, ΔompK35 mutant); 4 µg/mL (≈ 6.88 µM) in test [2] (Δ35/36, ΔompK35/36 mutant); 4 µg/mL (≈ 6.88 µM) in test [2] (Δ36, ΔompK36 mutant); 2 µg/mL (≈ 3.44 µM) in test [2] (ΔramR mutant); 2 µg/mL (≈ 3.44 µM) in test [2] (ΔramRΔ35, ΔramRΔompK35 mutant). Also, the MIC worked out at 4 µg/mL (≈ 6.88 µM) in test [2] (ΔramRΔ35/36, ΔramRΔompK35/36 mutant) and 4 µg/mL (≈ 6.88 µM) in test [2] (ΔramRΔ36, ΔramRΔompK36 mutant). Moreover, in test [3] (production of aminoglycoside-modifying enzymes), the “effects on the MIC” value is given as “no increase effects”.
Consider `NC[C@H]1O[C@H](O[C@H]2[C@H](O)[C@@H](O[C@H]3O[C@H](CO)[C@@H](O)[C@H](N)[C@H]3O)[C@H](N)C[C@@H]2N)[C@H](N)C[C@@H]1O` [TOB], for which the MIC in test [1] (setting [4]) is 0.5 µg/mL; in test [1] (setting [5]), 4 µg/mL; in test [1] (setting [6]), over 256 µg/mL; in test [1] (setting [7]), 8 µg/mL; in test [1] (setting [8]), 64 µg/mL; in test [1] (setting [9]) it was 0.5 µg/mL. Also, the MIC was 0.5 µg/mL in test [1] (setting [10]); 1 µg/mL in test [1] (setting [11]); over 256 µg/mL in test [1] (NVT1001 with ArmA on pACYC184); over 256 µg/mL in test [1] (NVT1001 with RmtB on pACYC184); 0.5 µg/mL in test [1] (setting [12]); 0.5 µg/mL in test [3] (KW1, no supplemental plasmid). Moreover, the minimum inhibitory concentration (MIC) was 0.5 µg/mL in test [3] (setting [13]); 2 µg/mL in test [3] (setting [14]); 0.5 µg/mL in test [3] (setting [15]); 0.5 µg/mL in test [3] (setting [16]); 0.5 µg/mL in test [3] (setting [17]); over 256 µg/mL in test [3] (KW1 with ArmA on pYMAb5Tc). Also, the MIC in test [3] (setting [18]) worked out at 0.5 µg/mL.
As to `CN[C@@H]1[C@H](O[C@H]2[C@H](O[C@H]3[C@H](O)[C@@H](O)[C@H](N=C(N)N)[C@@H](O)[C@@H]3N=C(N)N)O[C@@H](C)[C@]2(O)C=O)O[C@@H](CO)[C@H](O)[C@H]1O` [STR], the MIC worked out at 2 µg/mL in test [1] (setting [4]); 2 µg/mL in test [1] (setting [5]); 2 µg/mL in test [1] (setting [6]); 2 µg/mL in test [1] (setting [7]); 2 µg/mL in test [1] (setting [8]); 16 µg/mL in test [1] (setting [9]). Moreover, the minimal inhibitory concentration (MIC) amounted to 2 µg/mL in test [1] (setting [10]); 2 µg/mL in test [1] (setting [11]); 2 µg/mL in test [1] (NVT1001 with ArmA on pACYC184); 2 µg/mL in test [1] (NVT1001 with RmtB on pACYC184); 1024 µg/mL in test [1] (setting [12]); 12 µg/mL in test [3] (KW1, no supplemental plasmid). The MIC in test [3] (setting [13]) worked out at 8 µg/mL; in test [3] (setting [14]), 8 µg/mL; in test [3] (setting [15]), 8 µg/mL; in test [3] (setting [16]), 12 µg/mL; in test [3] (setting [17]) it was 12 µg/mL; in test [3] (KW1 with ArmA on pYMAb5Tc), 8 µg/mL. The MIC in test [3] (setting [18]) was 12 µg/mL.

Values taken from patent publication US10760110B2, “Antibiotic testing and screening system” (priority 2017, dated 2020).
